From a melting point compilation (Tetko et al.)

Row | melting point [°C] | Structure (SMILES)
1 | 280 | Cc1ccc(C=C2C(=O)NN=C2c2c(O)c3ccccc3n(C)c2=O)cc1
2 | 73 to 74 | Cc1nc2ccccn2c1Br
3 | 189 | COc1nc(C)nc(NC(=O)NS(=O)(=O)c2ccccc2OCCCl)n1
4 | 69 to 73 | CCC1CC(O)CC(C)(C)N1O (stereo not given)
5 | 88 | CC(=O)Nc1ccccc1C(=O)c1ccccc1
6 | 272 | Cn1c(=O)c(C2=NNC(=O)C2=CNc2ccccc2)c(O)c2ccccc21
7 | 80 | CC1CCC(C)(COC(=O)c2ccccc2C(=O)OCC2(C)CCC(C)C2(C)C)C1(C)C (stereo not given)
8 | 66 to 67 | COC(=O)c1cc2ccccc2n1C(=O)OC(C)(C)C
9 | 88 to 90 | N#CCCn1cccc(C(F)(F)F)c1=O
10 | 75 to 79 | N[C@@H](CO)c1ccccc1
11 | 175 to 178 | CC(=NOCc1cccc(C(=O)O)c1)c1ccc(Cl)c(Cl)c1
12 | 140 to 142 | O=C1C=C(NCCNc2ccccc2)C(=O)c2ccccc21
13 | 166 | O=C(O)c1cc(Cl)cc(Cl)c1Cl
14 | 152 | Nc1ccc(C(=O)NCCC(=O)O)cc1
15 | 150 | O=Cc1ccc(-c2ccc(C(=O)O)cc2)cc1
16 | 142 | O=C(O)c1ccccc1S(=O)(=O)O
17 | 183 | CC(C)(C)c1nnc(N)s1
18 | 35 to 36 | CCOC(=O)CSc1ncc(C(=O)OC)n1C
19 | 184 to 186 | Cc1oc(S(=O)(=O)N2CCOCC2)cc1C(=O)O
20 | 49.5 | CC(Cl)(Cl)C(=O)OCCOc1cc(Cl)c(Cl)cc1Cl
21 | 87 to 90 | N#Cc1ccc(OCCN2CCOCC2)cc1
22 | 176 | CC12CCC(/C(=C\Nc3ccccc3C(=O)O)C1=O)C2(C)C (stereo not given)
23 | 202 | Cc1ccccc1N1CSc2nnc(-c3cccnc3)n2C1
24 | 27.5 | COC(=O)CC(C)=O
25 | 80 to 82 | CCOC(=O)/C(=N\Nc1ccccc1)C(=O)C(F)(F)F

Row | melting point [°C] | Structure (SMILES)
26 | 238 | CCOC(=O)/C(C#N)=C/c1ccc(-c2ccc([N+](=O)[O-])cc2)o1
27 | 259 to 260 | COc1cc(C=Nn2c(C)cc(C)c(C#N)c2=O)ccc1O
28 | 118 to 121 | O=C(O)[C@H](O)c1ccccc1Cl
29 | -31 | CC(=O)OCCOC(C)=O
30 | 102 to 104 | CSc1nc(N)nc(C(C)(C)C)n1
31 | 218 | O=C(O)CSc1ccccc1C(=O)O
32 | 145 | O=C(N[C@H](Cc1ccccc1F)C(=O)O)OCC1c2ccccc2-c2ccccc21
33 | 271 to 274 | O=C(O)c1cc(Br)c(O)c(Br)c1
34 | 200 to 205 | O=C(O)c1ccccc1C(=O)O
35 | 158 | NNC(=O)c1cccc(O)c1
36 | 94 | O=C(NC(CO)Cc1ccccc1)OCc1ccccc1 (stereo not given)
37 | 45.5 | CN(C)C(=O)OC1=CC(=O)CC(C)(C)C1
38 | 96 | COC(=O)Cn1ccnc1[N+](=O)[O-]
39 | 156 to 157 | CSc1nc2nc(C)cc(C)n2n1
40 | 202 | CN(C)c1ccc(C(=O)C(=O)c2ccc(N(C)C)cc2)cc1
41 | 154 to 156 | Cc1noc(N)c1[N+](=O)[O-]
42 | 40 | Cc1ccc(OCCCCBr)cc1
43 | 83 | CC(=O)c1ccc2c(c1)OCCO2
44 | 115 to 117 | CCSc1nc(N)nc(C(C)C)n1
45 | 68 to 72 | COC(C(=O)O)c1ccccc1 (racemic)
46 | 55 | COc1cc(N)cc(OC)c1
47 | 110 to 113 | CC(C)(C)OC(=O)N[C@@H](CCC(=O)O)C(=O)O
48 | 194 | CCCCNC(=O)c1ccc2cc(O)c(O)cc2c1
49 | 170 to 171 | CC(C)S(=O)(=O)c1csc(C(=O)Cl)c1Cl
50 | 255 to 258 | CC(=O)Nc1cc(Cl)c(Cl)cc1NC(C)=O

Continued, compound first:

Row | Structure (SMILES) | melting point [°C]
51 | CC(C=Cc1ccccc1)=NO | 116 to 120
52 | Cn1c(/C(C#N)=C/c2c(Cl)cccc2Cl)nc2ccccc21 | 185
53 | CC(C)OC(=O)C1(S(=O)(=O)c2ccc([N+](=O)[O-])cc2)CCCCCC1 | 83.5
54 | Nc1c(Cl)cc(Cl)cc1I | 80
55 | OCc1ccc(-c2ccccc2)cc1 | 101 to 105
56 | O=Cc1ccccc1OC1OC(CO)C(O)C(O)C1O (stereo not given) | 178
57 | Brc1ccc(Oc2ccc(Br)cc2Br)c(Br)c1 | 78.5 to 79
58 | N#CC(=CN)S(=O)(=O)c1ccc(Cl)cc1 | 213 to 214
59 | O=c1c2ccccc2[nH]c(=S)n1Cc1ccccc1 | 256 to 257
60 | O=Cc1cc([N+](=O)[O-])ccc1Sc1ccccn1 | 109 to 110
61 | C=COC(C)C | -140
62 | CCCCCCCCCCCCCCC(C)CC (stereo not given) | -6
63 | Oc1ccc(Br)c2cccnc12 | 124
64 | O=Cc1csnn1 | 85 to 87
65 | CN(C)P(=O)(N(C)C)N(C)C | 7.2
66 | O=C(Cl)c1ccc2occc2c1 | 67 to 68
67 | CCOC(=O)C(C)(C)C1=CCC2(C)C(CCC3C2CCC2(C)C(OCc4ccccc4)CCC32)C1 (stereo not given) | 138
68 | CC(C)N(C(=O)Cl)C(C)C | 55 to 60
69 | CCCCCCCCCCCS | -3
70 | c1ccc2sc(SN(C3CCCCC3)C3CCCCC3)nc2c1 | 99.8
71 | CNC1CCC2(C)C(CCC3C2CCC2(C)C3CCC2C(C)N(C)C)C1 (stereo not given) | 172
72 | COc1c(F)cc(CBr)cc1F | 41
73 | O=C1/C(=N\Nc2ccccc2)C(c2ccc([N+](=O)[O-])cc2)=NN1c1ccccc1 | 239 to 240
74 | C=CC(=O)OCC(CC)CCCC (stereo not given) | -90
75 | CC(C)N(C(=O)SCC(Cl)=CCl)C(C)C | 25
76 | NCCCP(=O)(O)O | 290 to 294
77 | Nc1ccccc1C(=O)c1ccccc1 | 107

Row | Structure (SMILES) | melting point [°C]
78 | CCCCCCCCCCCCCCCc1cccc(O)c1O | 59.5
79 | CSC | -83
80 | Cc1cc(C)c(C2(C)CC(C(=NO)c3cc4ccccc4o3)C2)c(C)c1 (stereo not given) | 189 to 190
81 | FC(F)(F)CCCl | -106
82 | CCCCCCCCCCC(C)C | -26
83 | c1ccc(C(c2ccccc2)(c2ccccc2)N2CCOCC2)cc1 | 175
84 | Clc1ccc2[nH]c(C(Cl)(Cl)Cl)nc2c1 | 223 to 229
85 | CC(C)(C)c1cc(C(C)(C)C)c([N+](=O)[O-])c(C(C)(C)C)c1 | 205 to 206
86 | CN=C1CN(O)C(c2ccccc2)=c2cc(Cl)ccc2=N1 | 236
87 | O=C1CSC2(CCN(CCCN3c4ccccc4Sc4ccc(Cl)cc43)CC2)N1 | 155
88 | CC1(C)OC(=O)C(=Cc2ccc(Cl)cc2Cl)C(=O)O1 | 156
89 | CC(C)(C)c1ccc(-c2nnc(-c3ccc(-c4ccccc4)cc3)o2)cc1 | 137
90 | COc1ccc2c3c1OC1C(O)C=CC4C(C2)[N+](C)([O-])CCC341 (stereo not given) | 232
91 | N#Cc1ccc(Cl)nc1 | 118
92 | O=C(Nc1cccnc1Cl)c1cccc(C(F)(F)F)c1 | 83 to 85
93 | O=C(O)c1ccc(C(F)(F)F)cc1C(F)(F)F | 109 to 113
94 | O=[N+]([O-])C=Cc1cc(Cl)ccc1O | 148 to 154
95 | BrCCCCCCCBr | 41.7
96 | ClC=CCl | -80
97 | O=[N+]([O-])c1ccc(N/N=C/c2ccccc2)c([N+](=O)[O-])c1 | 240
98 | Cc1noc(-c2ccccc2)c1N=C=O | 79 to 81
99 | N#Cc1cc(I)c(O)c(I)c1 | 212
100 | O=C(Nc1nnc(-c2ccc(Cl)cc2)o1)c1ccc(Cl)cc1Cl | 212 to 213
101 | O=C(CCl)Nc1ccc(Cl)cc1C(=O)c1ccccc1Cl | 161 to 163
102 | CC(Br)C(Br)CBr (stereo not given) | -19
103 | O=C(Br)C(=O)Br | -19
104 | O=Cc1ccc(-c2ccco2)s1 | 40 to 41

Row | Structure (SMILES) | melting point [°C]
105 | FC1(F)C(F)(F)C(F)(F)C2(F)C(F)(F)C(F)(F)C(F)(F)C(F)(F)C2(F)C1(F)F (stereo not given) | -10
106 | N#Cc1cccnc1N1CCNCC1 | 76 to 78
107 | Oc1ccc(C(O)C2CCCCN2)cc1O (stereo not given) | 204
108 | O=C(Nc1ccc(F)cc1)c1cccc(Oc2cccc(C(F)(F)F)c2)n1 | 107
109 | N#Cc1ccc(CS(=O)(=O)Cl)cc1 | 99.5 to 102
110 | C#CC1(O)CCC2C3CC=C4C=C(C(C)(C)C(=O)O)CCC4(C)C3CCC21C (stereo not given) | 257 to 260
111 | Cc1c(/C=C/c2ccc(Cl)cc2Cl)c2ccccc2n1S(=O)(=O)c1ccccc1 | 110
112 | CCc1cccc([N+](=O)[O-])c1 | -37.9
113 | O=[N+]([O-])c1c(Cl)cccc1-c1c[nH]cc1Cl | 124
114 | O=C(Nc1cccc2ccccc12)Nc1cccc2ccccc12 | 296
115 | O=C(CCl)Nc1ccc(F)cc1 | 131 to 132
116 | CCCCNC(=O)OCC#CI | 66
117 | N#CC1CCCC1 | -76
118 | c1cc2c(cc1CN1CCNCC1)OCO2 | 43
119 | Ic1cc(I)cc(I)c1 | 184
120 | O=C(C(=S)Nc1ccc(Br)cc1)c1ccccc1 | 118
121 | Clc1cc2nsnc2cc1CBr | 75 to 77
122 | CC=C1CC(C)C(O)(CO)C(=O)OCC2=CCN3CCC(OC1=O)C23 (stereo not given) | 212
123 | N#Cc1cc(C(F)(F)F)ccc1N1CCOCC1 | 53 to 55
124 | FC(F)(F)c1cc(Cl)c2cc(Br)ccc2n1 | 98 to 100
125 | N#C/C(=C\c1cccc(O)c1)c1nc2ccccc2[nH]1 | 299 to 300
126 | Nc1c(Br)cc(F)c(F)c1F | 58 to 60
127 | CN(C)c1ccc(C(c2ccc(N(C)C)cc2)c2ccc(N(C)C)cc2)cc1 | 180
128 | FC(F)(F)C#CC(F)(F)F | -117
129 | O=C(O)C(F)(F)C(F)(F)C(F)(F)C(F)(F)C(F)(F)F | 10
130 | O=S(=O)(O)CCNC(CO)(CO)CO | 223 to 225
